From ChEMBL document CHEMBL1201862, “PubChem BioAssay data set” (2004)
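A five-concentration, 48-hour dose response in 96-well plates underlies each endpoint, interpolated linearly between surrounding concentrations. Here, GI50 denotes the concentration required for 50% inhibition of growth.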 Active and inactive are the calls of the source. No stated cut-off is given here; in the data, active = GI50 up to about 1.1 µM and inactive = higher.

Legend:
Assay in all cases: DTP human tumour cell line panel, 48 h
[1] = test system: 786-0
[2] = test system: A498
[3] = test system: A549
[4] = test system: ACHN
[5] = test system: BT-549
[6] = test system: CAKI-1
[7] = test system: CCRF-CEM
[8] = test system: EKVX
[9] = test system: HCC 2998
[10] = test system: HCT-116
[11] = test system: HCT-15
[12] = test system: HL-60
[13] = test system: HOP-62
[14] = test system: HOP-92
[15] = test system: HT-29
[16] = test system: Hs-578T
[17] = test system: IGROV-1
[18] = test system: K562
[19] = test system: KM12
[20] = test system: LOX IMVI
[21] = test system: M14
[22] = test system: MCF7
[23] = test system: MDA-MB-231
[24] = test system: MDA-MB-435
[25] = test system: MDA-N
[26] = test system: MOLT-4
[27] = test system: Malme-3M
[28] = test system: NCI-H226
[29] = test system: NCI-H23
[30] = test system: NCI-H460
[31] = test system: NCI-H522
[32] = test system: NCI/ADR-RES
[33] = test system: OVCAR-3
[34] = test system: OVCAR-4
[35] = test system: OVCAR-5
[36] = test system: OVCAR-8
[37] = test system: PC-3
[38] = test system: RPMI-8226
[39] = test system: RXF 393
[40] = test system: SF-268
[41] = test system: SF-295
[42] = test system: SF-539
[43] = test system: SK-MEL-28
[44] = test system: SK-MEL-2
[45] = test system: SK-MEL-5
[46] = test system: SK-OV-3
[47] = test system: SN12C
[48] = test system: SNB-19
[49] = test system: SNB-75
[50] = test system: SR
[51] = test system: SW-620
[52] = test system: T47D
[53] = test system: TK-10
[54] = test system: U-251
[55] = test system: UACC-257
[56] = test system: UACC-62
[57] = test system: UO-31
[58] = test system: COLO 205
[59] = test system: DU-145

With `Cc1cc(Cl)ccc1NC(=O)/C(Cc1nc2ccc(C(=O)c3ccccc3)cc2nc1O)=N/NC(=O)c1ccncc1` the GI50 [1] was > 100 µM (inactive), the GI50 [2] was > 100 µM (inactive) and the GI50 [3] was > 100 µM (inactive). The GI50 [4] was > 100 µM (inactive), the GI50 [5] was > 100 µM (inactive) and the GI50 [6] was > 100 µM (inactive). For the same compound, the GI50 [7] was > 100 µM (inactive), the GI50 [8] was > 100 µM (inactive) and the GI50 [9] was > 100 µM (inactive). The GI50 [10] was 50.6 µM (inactive), the GI50 [11] was 92 µM and the GI50 [12] was 95.9 µM (inactive). The GI50 [13] was > 100 µM (inactive), the GI50 [14] was > 100 µM (inactive) and the GI50 [15] was > 100 µM (inactive). The GI50 [16] was > 100 µM (inactive), the GI50 [17] was > 100 µM (inactive) and the GI50 [18] was 63.7 µM (inactive). The GI50 [19] was 39.1 µM (inactive), the GI50 [20] was > 100 µM (inactive) and the GI50 [21] was > 100 µM (inactive). The GI50 [22] was > 100 µM (inactive), the GI50 [23] was > 100 µM (inactive) and the GI50 [24] was 42.4 µM (inactive). The GI50 [25] was 97.3 µM (inactive), the GI50 [26] was 64.3 µM (inactive) and the GI50 [27] was > 100 µM (inactive). The GI50 [28] was 1.72 µM (inactive), the GI50 [29] was > 100 µM (inactive) and the GI50 [30] was > 100 µM (inactive). For the same compound, the GI50 [31] was > 100 µM (inactive), the GI50 [32] was > 100 µM (inactive) and the GI50 [33] was > 100 µM (inactive). For the same compound, the GI50 [34] was > 100 µM (inactive), the GI50 [35] was > 100 µM (inactive) and the GI50 [36] was > 100 µM (inactive). The GI50 [37] was > 100 µM (inactive), the GI50 [38] was > 100 µM (inactive) and the GI50 [39] was > 100 µM (inactive). For the same compound, the GI50 [40] was > 100 µM (inactive), the GI50 [41] was > 100 µM (inactive) and the GI50 [42] was > 100 µM (inactive). The GI50 [43] was > 100 µM (inactive), the GI50 [44] was > 100 µM (inactive) and the GI50 [45] was 92 µM (inactive). For the same compound, the GI50 [46] was > 100 µM (inactive), the GI50 [47] was > 100 µM (inactive) and the GI50 [48] was > 100 µM (inactive). For the same compound, the GI50 [49] was > 100 µM (inactive), the GI50 [50] was 21.7 µM (inactive) and the GI50 [51] was > 100 µM (inactive). For the same compound, the GI50 [52] was > 100 µM (inactive), the GI50 [53] was > 100 µM (inactive) and the GI50 [54] was > 100 µM (inactive). For the same compound, the GI50 [55] was > 100 µM (inactive), the GI50 [56] was 97.3 µM (inactive) and the GI50 [57] was 53.8 µM (inactive).
For `Cc1ccc2c(=O)c(C(=O)NNC(=S)NC3CCCCC3)c[nH]c2n1`, the GI50 [1] was > 100 µM (inactive), the GI50 [2] was > 100 µM (inactive) and the GI50 [3] was > 100 µM (inactive). For the same compound, the GI50 [4] was 96.4 µM (inactive), the GI50 [5] was 71.3 µM (inactive) and the GI50 [6] was 59.2 µM (inactive). For the same compound, the GI50 [7] was 99.5 µM (inactive), the GI50 [58] was 64.6 µM (inactive) and the GI50 [59] was > 100 µM (inactive). The GI50 [8] was 68.9 µM (inactive), the GI50 [10] was 99.5 µM (inactive) and the GI50 [11] was > 100 µM. For the same compound, the GI50 [12] was 46.9 µM (inactive), the GI50 [13] was 68.1 µM (inactive) and the GI50 [15] was 53.1 µM (inactive). For the same compound, the GI50 [16] was 64.1 µM (inactive), the GI50 [17] was 35.6 µM (inactive) and the GI50 [18] was 30.6 µM (inactive). The GI50 [19] was 56.8 µM (inactive), the GI50 [20] was 51.3 µM (inactive) and the GI50 [21] was 53.2 µM (inactive). For the same compound, the GI50 [22] was 83.6 µM (inactive), the GI50 [23] was 52.7 µM (inactive) and the GI50 [24] was 30.1 µM (inactive). The GI50 [25] was 31.6 µM (inactive), the GI50 [26] was 32.7 µM (inactive) and the GI50 [27] was 65.8 µM (inactive). For the same compound, the GI50 [28] was 23.9 µM (inactive), the GI50 [29] was 94.8 µM (inactive) and the GI50 [30] was 80 µM (inactive). For the same compound, the GI50 [31] was 51.6 µM (inactive), the GI50 [32] was > 100 µM (inactive) and the GI50 [33] was 71.8 µM (inactive). For the same compound, the GI50 [34] was 78.9 µM (inactive), the GI50 [35] was > 100 µM (inactive) and the GI50 [36] was > 100 µM (inactive). The GI50 [37] was 45.4 µM (inactive), the GI50 [38] was 42.8 µM (inactive) and the GI50 [39] was > 100 µM (inactive). For the same compound, the GI50 [40] was 96.8 µM (inactive), the GI50 [41] was 56.8 µM (inactive) and the GI50 [43] was 77.8 µM (inactive). The GI50 [44] was 65.9 µM (inactive), the GI50 [45] was 33.7 µM (inactive) and the GI50 [47] was 78.7 µM (inactive). For the same compound, the GI50 [48] was > 100 µM (inactive), the GI50 [51] was 40.6 µM (inactive) and the GI50 [52] was 46.9 µM (inactive). For the same compound, the GI50 [53] was > 100 µM (inactive), the GI50 [54] was 65.9 µM (inactive) and the GI50 [55] was > 100 µM (inactive). For the same compound, the GI50 [56] was 62.4 µM (inactive) and the GI50 [57] was > 100 µM (inactive).
`CSC(SC)=C1C(=O)NN=C1C` was tested, and the GI50 [1] was > 100 µM (inactive), the GI50 [3] was > 100 µM (inactive) and the GI50 [4] was > 100 µM (inactive). The GI50 [5] was > 100 µM (inactive), the GI50 [6] was 89.3 µM (inactive) and the GI50 [7] was > 100 µM (inactive). The GI50 [58] was > 100 µM (inactive), the GI50 [59] was > 100 µM (inactive) and the GI50 [8] was > 100 µM (inactive). For the same compound, the GI50 [9] was > 100 µM (inactive), the GI50 [10] was > 100 µM (inactive) and the GI50 [11] was > 100 µM. The GI50 [12] was > 100 µM (inactive), the GI50 [13] was > 100 µM (inactive) and the GI50 [14] was 35.1 µM (inactive). The GI50 [15] was > 100 µM (inactive), the GI50 [16] was > 100 µM (inactive) and the GI50 [17] was > 100 µM (inactive). For the same compound, the GI50 [18] was > 100 µM (inactive), the GI50 [19] was > 100 µM (inactive) and the GI50 [20] was > 100 µM (inactive). The GI50 [21] was > 100 µM (inactive), the GI50 [22] was > 100 µM (inactive) and the GI50 [23] was > 100 µM (inactive). For the same compound, the GI50 [24] was > 100 µM (inactive), the GI50 [25] was > 100 µM (inactive) and the GI50 [26] was > 100 µM (inactive). For the same compound, the GI50 [27] was > 100 µM (inactive), the GI50 [28] was > 100 µM (inactive) and the GI50 [29] was > 100 µM (inactive). For the same compound, the GI50 [30] was > 100 µM (inactive), the GI50 [31] was 47 µM (inactive) and the GI50 [33] was > 100 µM (inactive). The GI50 [34] was > 100 µM (inactive), the GI50 [35] was > 100 µM (inactive) and the GI50 [37] was > 100 µM (inactive). For the same compound, the GI50 [38] was > 100 µM (inactive), the GI50 [39] was > 100 µM (inactive) and the GI50 [40] was > 100 µM (inactive). For the same compound, the GI50 [41] was > 100 µM (inactive), the GI50 [42] was > 100 µM (inactive) and the GI50 [43] was > 100 µM (inactive). For the same compound, the GI50 [44] was > 100 µM (inactive), the GI50 [45] was > 100 µM (inactive) and the GI50 [46] was > 100 µM (inactive). For the same compound, the GI50 [47] was > 100 µM (inactive), the GI50 [48] was > 100 µM (inactive) and the GI50 [50] was > 100 µM (inactive). The GI50 [51] was > 100 µM (inactive), the GI50 [52] was > 100 µM (inactive) and the GI50 [53] was > 100 µM (inactive). For the same compound, the GI50 [54] was > 100 µM (inactive), the GI50 [55] was > 100 µM (inactive) and the GI50 [56] was > 100 µM (inactive). For the same compound, the GI50 [57] was > 100 µM (inactive).
